The values below come from patent US4158018A, “3-Oxa carbinol prostaglandin analogs” (Miles Laboratories, Inc., priority 1978, dated 1979).

Experiment [1] relates to Gastric Secretion of the Rat. The experiment in a line: Effects on gastric secretion of the rat (pylorus ligated). The class given is in vivo. The settings on record: for Gastric Secretion (value judgement, % decrease in acidity): subcutaneous, 2 x 1.5 mg/kg (total 3.0 mg/kg), 4 hours after pyloric ligation. The protocol: Evaluation of the Effects of Prostaglandin Analogues on Gastric Secretion of the Rat
A procedure based on that described by Lipmann (1969) is used to assess the influence of test compound on gastric secretion. Rats of one sex weighing 150 to 200 gm are randomly divided into groups of six animals each and fasted for 48 hours previous to the experiments, water being available ad libitum. The animals are anesthetized with ether, the abdomen opened through a midline incision, and the pylorus ligated. Test compounds are diluted from stock solution so as to administer a dose of 1.5 mg/kg in a volume equivalent to 1 ml/kg. Subcutaneous injections are applied immediately after surgery and again 2 hours later, so that a total dose of 3.0 mg/kg is administered. Dilutions are made with phosphate buffer (pH 7.38) as recommended by Lee et al (1973), in order to insure adequate stability of drugs at the subcutaneous depot. Each compound is tested in one group of rats; an additional control group received only one vehicle.
Four hours after pyloric ligation the animals are killed with ether, the cardias ligated and the stomachs removed. The volume of gastric secretion is measured and the contents centrifuged at 5000 rpm for 10 minutes. Total acid in the supernatant is titrated against a 0.1 N sodium hydroxide solution and the amount expressed in mEq.
Volume and total acid values of the treated group are compared with those of the controls by the test. Antisecretory activity is scored according to the following scale: […]

The subject of a further experiment is Hypertensive Rat. Description: Effects on blood pressure in the hypertensive rat (Grollman). The experiment is classed as in vivo. Also noted: key: 0: Not significant at any time interval; 1: Significant at one time interval; 2: Significant at two time intervals; 3: Significant at three time intervals; 4: Significant at all four time intervals. The settings on record: intraperitoneal, 1 mc/kg; 2, 4, 6 and 8 hours. Here is the method:
Evaluation of the Effects of Prostaglandin Analogues on Blood Pressure in the Hypertensive Rat
The acute antihypertensive activity of test compounds is determined in rats made hypertensive by the procedure of Grollman (1944). Female rats weighing between 60 and 100 g are anesthetized with ether, the right kidney approached through a flank retroperitoneal incision, decapsulated and tied with a figure-of-eight ligature. The animals are left to recover and two weeks later are again anesthetized and the contralateral kidney removed. Four weeks after the second operation the rats are subjected to indirect blood pressure measurements and those showing systolic pressure values greater than 160 mmHg are selected for drug testing.
Blood pressure is measured in the tail with an inflatable occluding cuff placed at the base of the extremity and a pulse detector located distally. The cuff is inflated to approximately 300 mmHg and is slowly deflated until pulsations appear, indicating the level of systolic pressure; diastolic pressure is not recorded by this procedure. All measurements are carried out in unanesthetized, unsedated animals maintained in a warm environment during the recording procedure and for at least 6 hours before. In all cases, three pressure readings are obtained in succession and mean values are calculated thereof.
Experiments are carried out in groups of five hypertensive rats in which systolic pressure is determined immediately before and 2, 4, 6 and 8 hours after the intraperitoneal administration of the test compound at a dose of 1 mc/kg. Drugs are diluted from stock solutions with phosphate buffer (Lee et al, 1973), so as to inject this quantity in a volume of 1 ml/kg. Changes from control blood pressure values are calculated for each interval both in mmHg and in percent and evaluated for significance by means of Wilcoxon's signed rank test (Wilcoxon and Wilcox, 1964).

For a further experiment, the system named is gastric secretion. The settings on record: dogs; cited from earlier work.
For a further experiment, the system named is growth hormone release. The settings on record: rats; cited from earlier work.
Experiment [2] has as its system smooth muscle of the vas deferens. The settings on record: mammalian male reproductive system; cited from earlier work.
In a further experiment the test system is adrenal glands. The settings on record: hypophysectomized rats; cited from earlier work.
For another experiment, the system named is blood platelets. The settings on record: in vitro; cited from earlier work.
For experiment [3], the system named is ovarian progesterone secretion. The settings on record: sheep; cited from earlier work.
The next experiment deals with thyroid activity. The settings on record: mice; cited from earlier work.

As for “16,20-methano-oxa-1,11β,15R-trihydroxy- 8,12-bisisoprost-13E-en-9-one [TR-4853]”, the “Gastric Secretion (value judgement, % decrease in acidity)” value in [1] is 0 (<26).

In the case of `CCCCC(C)(C)[C@H](O)/C=C/[C@H]1[C@H](O)CC(=O)[C@@H]1CCCCOCCO` (relative stereo) [TR-4616, ±16,16-dimethyl-3-oxa-1,11α,15R and S-trihydroxyprost-13E-en-9-one], the “inhibition of gastric acid secretion (in words)” value in experiment [1] (rat, in vivo) is “inhibit gastric acid secretion”. In addition, in [1], the “Gastric Secretion (value judgement, % decrease in acidity)” value is 2 (26-50, significant). Besides, in the experiment with Hypertensive Rat, the “Blood Pressure Hypertensive Rat (value judgement, blood pressure decrease)” value is on record as 0.

As for `CCCCC(C)(C)[C@@H](O)/C=C/[C@H]1[C@H](O)CC(=O)[C@@H]1CCCCOCCO` (relative stereo) [TR-4617, ±16,16-dimethyl-3-oxa-1,11α,15R and S-trihydroxyprost-13E-en-9-one], the “Gastric Secretion (value judgement, % decrease in acidity)” value in [1] is recorded as 0 (<26). For the same molecule, the “Blood Pressure Hypertensive Rat (value judgement, blood pressure decrease)” value with Hypertensive Rat came out at 1.

Regarding `CCCCC[C@H](O)/C=C/[C@H]1[C@H](O)CC(=O)[C@@H]1CCCCCCC(=O)O` [PGE1, prostaglandin E1], the gastric secretion result in the experiment on gastric secretion was “inhibits gastric secretion”. The “release of growth hormone” value in the experiment on growth hormone release is on record as “increases the release of growth hormone”. Besides, the “contraction of smooth muscle of the vas deferens” value in experiment [2] was “contracts the smooth muscle of the vas deferens”. For the same molecule, the “stereodogenesis in the adrenal glands” value in the experiment on adrenal glands is “stimulate stereodogenesis in the adrenal glands”. For the same molecule, the “aggregation of blood platelets” value in the experiment with blood platelets was “inhibits aggregation of blood platelets in vitro”. Moreover, in experiment [3], the ovarian progesterone secretion result was “inhibit ovarian progesterone secretion”. The thyroid activity entry in the experiment with thyroid activity is “increase thyroid activity”.

On to `CCCCC[C@H](O)/C=C/[C@H]1[C@H](CCCCOCCO)C(=O)C[C@@H]1O` [TR-4649, 3-oxa-1,11β,15S-trihydroxy-8,12-bisisoprost-13E-en-9-one], for which, in [1], the “Gastric Secretion (value judgement, % decrease in acidity)” value is listed as 0 (<26).

Take `CCCCC[C@H](O)/C=C/[C@H]1[C@H](O)CC(=O)[C@@H]1CCCCOCCO` [TR-4650, 3-oxa-1,11α,15S-trihydroxyprost-13E-en-9-one]: the “Gastric Secretion (value judgement, % decrease in acidity)” value in experiment [1] was 0 (<26). In the experiment with Hypertensive Rat, the “Blood Pressure Hypertensive Rat (value judgement, blood pressure decrease)” value was found to be 1.

Turning to `O=C1CC(O)C(/C=C/[C@H](O)C2CCCCC2)C1CCCCOCCO` (stereo partly drawn) [TR-4856, 16,20-methano-3-oxa-1,11α,15R-trihydroxyprost-13E-en-9-one], in experiment [1], the “Gastric Secretion (value judgement, % decrease in acidity)” value is given as 0 (<26). Further, in the experiment on Hypertensive Rat, the “Blood Pressure Hypertensive Rat (value judgement, blood pressure decrease)” value is reported as 2.
